The results in this text go back to patent US10428064B2, “Fused-tricyclic inhibitors of KRAS and methods of use thereof” (Araxes Pharma LLC, priority 2015, dated 2019).

The target in this assay is T1, KRAS G12C 1-169, his-tagged protein, GDP-loaded (Homo sapiens, UniProt P01116, G12C).
T1 construct: KRAS G12C 1-169, his-tagged protein, GDP-loaded
Briefly: Biochemical assay: covalent modification of KRAS G12C protein measured by mass spectrometry (RapidFire/TOF or Q-Exactive). The settings on record: covalent binding to KRAS G12C. As to the method:
Test compounds are prepared as 10 mM stock solutions in DMSO (Fisher cat # BP-231-100). KRAS G12C 1-169, his-tagged protein, GDP-loaded is diluted to […] in buffer (20 mM Hepes, 150 mM NaCl, 1 mM MgCl2). Compounds are tested for activity as follows:
Compounds are diluted to 50× final test concentration in DMSO in 96-well storage plates. Compound stock solutions are vortexed before use and observed carefully for any sign of precipitation. […] The plate is then resealed with aluminum seal and stored on dry ice until analyzed as described below.
The above described assays are analyzed by mass spectrometry according to one of the following two procedures: […]
After another 30 minute equilibration time, a blank batch (i.e., buffer) is run to ensure equipment is operating properly. […] The method is then run and masses of each individual well recorded. […]
The masses and peak intensities of KRAS G12C protein species are measured using a Dionex RSLCnano system (Thermo Scientific) connected to a Q Exactive Plus mass spectrometer (Thermo Scientific). […]
The mass spectrometer is operated in profile mode at a resolution of 17500, 5 microscans, using 50 msec max injection time and an AGC target of 1e6, and a full mass range from 800-1850 m/z is recorded. […]

T1 sequence (P01116 1-169 isoform P01116-2 G12C): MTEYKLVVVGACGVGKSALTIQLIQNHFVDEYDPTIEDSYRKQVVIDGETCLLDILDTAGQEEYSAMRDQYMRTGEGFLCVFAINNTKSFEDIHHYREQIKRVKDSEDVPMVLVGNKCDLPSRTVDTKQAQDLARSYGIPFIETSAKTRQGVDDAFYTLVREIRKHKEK

For the compound `C=CC(=O)N1CCN(c2c3c(nc4c(F)c(-c5c(O)cccc5F)c(Cl)cc24)NC(=O)NC3)CC1` [Compound 1, 5-(4-acryloylpiperazin-1-yl)-7-chloro-9-fluoro-8-(2-fluoro-6-hydroxyphenyl)-3,4-dihydropyrimido [4,5-b]quinolin-2(1H)-one], the Binding % result was “++ (++ indicates binding activity greater than 50%)”.

On to `C=CC(=O)N1CCN(c2c3c(nc4c(F)c(-c5c(O)cccc5F)c(Cl)cc24)CCN(C)C3=O)CC1` [Compound 19, 10-(4-acryloylpiperazin-1-yl)-8-chloro-6-fluoro-7-(2-fluoro-6-hydroxyphenyl)-2-methyl-3,4-dihydrobenzo[b] [1,6]naphthyridin-1(2H)-one], for which the Binding % result is recorded as “+ (+ indicates binding activity up to 50%)”.
